Results: patent US11583525B2, “Geranylgeranyltransferase I inhibitor for treatment of a PTEN defective cancer” (H. LEE MOFFITT CANCER CENTER AND RESEARCH INSTITUTE, INC., priority 2017, dated 2023)
Peptide text beside a SMILES is read from it. * marks the point of attachment. Cbz = O=C(OCc1ccccc1)*

Columns and labels:
Type in all cases: cell-based, human
[1] = tested on: Ca2+ mobilization; assay: Cytosolic Ca2+ mobilization measured with aequorin in NHFs in response to ATP; conditions: NHFs re-stimulated with serum for one hour; ATP stimulation
Procedure: FIGS. 7A, 7B, 7C, 7D, 7E, 7F, 7G, 7H, and 7I show FBXL2 controls Ca2+ mobilization and Ca2+-mediated apoptosis. […] Quantification of three independent experiments is shown and represented as percentage increase compared to EXP cells, which were set as 100%. P values were calculated by one-way ANOVA and multiple-comparisons test. Error bars indicate s.e.m. […] Quantifications and P value analyses was performed as in a. […] On the left, representative traces. On the right, quantification of three independent experiments. P values were calculated by a one-way ANOVA and multiple-comparisons test. Error bars indicate s.e.m. […] Concentrations of cytosolic (7d) and mitochondrial (7e) Ca2+ were measured with the appropriate aequorin in response to agonist stimulation (ATP). […] On the right, quantifications of three independent experiments. P values were calculated by one-way ANOVA and multiple-comparisons test. […] P values were calculated by unpaired t-test. […] Induction of cell death was evaluated after treatment with H2O2 using automated nuclei count analysis of twenty randomly chosen fields. P values were calculated by one-way ANOVA and multiple-comparisons test. […] Left, representative traces showing concentrations of mitochondrial Ca2+ measured with mitochondrial targeted aequorin. Right, quantification of three independent experiments. P values were calculated by one-way ANOVA and multiple-comparisons test. […]

[2] = tested on: IP3R3; assay: IP3R3 levels in U87 and A549 cells (immunoblotting); conditions: U87 and A549 cells (no or low PTEN); GGTi-2418 for 16 h
[3] = tested on: IP3R3; assay: IP3R3 levels and FBXL2 binding in HEK293T cells transfected with Flag-tagged FBXL2 constructs
Procedure: 24 h post-transfection, cells were treated with MG132 for 3 h before harvesting for immunoprecipitation and immunoblotting as indicated. WCL, whole-cell lysate from untransfected cells. […] After harvesting, cells were lysed, and cell membranes (CM) were isolated and immunoprecipitated with either a normal mouse IgG or an anti-Flag antibody. Subsequently, immunoprecipitates were analysed by immunoblotting as indicated. The results of these experiments (n=2) indicate that FBXL2 is incorporated into a complete SCF ligase that binds its substrate(s) at cellular membranes. […] After harvesting, cells were lysed and cytoplasmic (CYTO) and cell membrane (CM) fractions were isolated and analysed by immunoblotting as indicated. Actin and calnexin are used as markers for cytoplasmic and cell membrane fractions, respectively. This experiment was performed twice. […] 24 h post-transfection, where indicated, cells were treated with MG132 for 3 h before harvesting for immunoprecipitation and immunoblotting. Ned. CUL1, neddylated CUL1. […] The experiment was performed in the presence or absence of MG132 as indicated. Whole-cell lysates were immunoblotted as indicated. The asterisk indicates a non-specific band. This experiment was performed twice. […] P values were calculated by unpaired t-test. Error bars indicate s.e.m. […] Error bars indicate s.e.m. The values represent the ratios between FBXL2 and GAPDH mRNAs. […]

Compound	serum-mediated decrease in Ca2+ mobilization [1]	IP3R3 levels [2]	FBXL2-induced decrease in the levels of IP3R3 ([3]; HEK293T cells expressing wild-type FBXL2, MG132)	difference in IP3R3 binding between FBXL2(ΔF-box) and wild-type FBXL2 ([3]; HEK293T cells, MG132 for 3 h)
Cc1nc[nH]c1CN1CCN(C(=O)N[C@@H](CC(C)C)C(=O)O)[C@@H](Cc2ccccc2)C1=O [GGTi-2418]	inhibited the serum-mediated decrease in Ca2+ mobilization	IP3R3 levels increased		
CC(C)C[C@@H](C=O)NC(=O)[C@H](CC(C)C)NC(=O)[C@H](CC(C)C)NC(=O)OCc1ccccc1 [MG132] (Cbz-Leu-Leu-Leu-aldehyde)	inhibited the serum-mediated decrease in Ca2+ mobilization		this decrease was rescued by MG132 treatment	this difference was abolished by MG132 treatment
